Patent publication US10251889B2, “Substituted pyrazolo[1,5-a]pyrimidine compounds as Trk kinase inhibitors” (Array BioPharma, Inc., priority 2009, dated 2019)

Molecular target: Jak2 (human Jak2 kinase domain, amino acids 808-1132) (Homo sapiens (Human), UniProt O60674)
Test: Jak2 inhibition assay (Omnia kinase assay)
Type: biochemical
Settings: read-out: Jak2 Enzyme (% inhibition at 1000 nM), Table 1; 1000 nM test compound
Procedure: The assays described in Examples C, D, E and F for the determination of JAK1, JAK2, JAK3 and Tyk2 kinase activity, respectively, utilized the Omnia® Kinase fluorescence peptide substrate-based technology (Invitrogen). […] The reactions were therefore read at excitation 360 nm and emission was measured at 485 nm every 50 seconds for 45 minutes using a PerkinElmer EnVision Multilabel Plate Reader.
The final buffer conditions for each of the JAK1, JAK2, JAK3 and Tyk2 assays were as follows: 25 mM HEPES, pH 7.4, 10 mM MgCl2, 0.01% Triton X-100 and 1 mM DTT.
Two-μL aliquots of these were transferred to a fresh plate for a ten-fold intermediate dilution with assay buffer. Five-μL aliquots of the diluted compounds were then transferred to 20-μL of assay mixtures described in Examples C, D, E and F for a final concentration of DMSO of 2%. […] For each plate, percent of control (POC) values were calculated for each well according to the following equation:
where Xmax=Average Uninhibited Controls • Xmin=Average Background IC50's were estimated from the POC's using a standard 4-parameter logistic model:
where A=Minimum Y (Bottom Asymptote) • B=Maximum Y (Top Asymptote) • C=EC50 • D=Slope Factor • X=Compound Concentration (nM) • Y=POC
The IC50 is defined as the concentration of inhibitor at which the POC equals 50 for the fitted curve.
Compounds of Formula I were screened for their ability to inhibit Jak2 using the general enzyme inhibition assay method, in which the assay mixture contained 500 μM ATP, 10 μM Omnia® Y7 peptide (Catalog # IVGN KNZ3071C, Invitrogen Corporation, Carlsbad, Calif.) and 4 nM Jak2 in a total volume of 20 μL. Human Jak2 kinase domain comprising amino acids 808-1132 was purchased from Invitrogen Corporation, Carlsbad, Calif. (catalog # IVGN PV4210).

Jak2 (human Jak2 kinase domain, amino acids 808-1132), sequence (O60674 808-1132): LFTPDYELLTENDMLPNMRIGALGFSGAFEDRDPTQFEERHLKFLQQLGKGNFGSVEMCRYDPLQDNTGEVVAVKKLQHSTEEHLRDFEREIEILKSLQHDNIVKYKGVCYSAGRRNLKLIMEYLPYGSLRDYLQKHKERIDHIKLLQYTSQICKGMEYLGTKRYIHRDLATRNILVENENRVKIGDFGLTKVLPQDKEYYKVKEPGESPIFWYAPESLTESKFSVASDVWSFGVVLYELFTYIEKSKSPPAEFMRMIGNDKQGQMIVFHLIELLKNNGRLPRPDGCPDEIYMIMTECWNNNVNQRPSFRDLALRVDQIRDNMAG

inhibition at 1 µM	Compound
23%	CC1(C)CC[C@H](c2cc(F)ccc2F)N1c1ccn2ncc(C(=O)NC3CC3)c2n1 [Example 68, (R)—N-cyclopropyl-5-(5-(2,5-difluorophenyl)-2,2-dimethylpyrrolidin-1-yl)pyrazolo[1,5-a]pyrimidine-3-carboxamide]
6%	CC(C)(C#N)NC(=O)c1cnn2ccc(N3CCC[C@@H]3c3cncc(F)c3)nc12 [Example 69, (R)—N-(2-cyanopropan-2-yl)-5-(2-(5-fluoropyridin-3-yl)pyrrolidin-1-yl)pyrazolo[1,5-a]pyrimidine-3-carboxamide]
6.2%	CC(C)(CF)NC(=O)c1cnn2ccc(N3CCC[C@@H]3c3cncc(F)c3)nc12 [Example 71, (R)—N-(1-fluoro-2-methylpropan-2-yl)-5-(2-(5-fluoropyridin-3-yl)pyrrolidin-1-yl)pyrazolo[1,5-a]pyrimidine-3-carboxamide]
11.7%	O=C(NC1CCOCC1)c1cnn2ccc(N3CCC[C@@H]3c3cncc(F)c3)nc12 [Example 72, (R)-5-(2-(5-fluoropyridin-3-yl)pyrrolidin-1-yl)-N-(tetrahydro-2H-pyran-4-yl)pyrazolo[1,5-a]pyrimidine-3-carboxamide]
4.9%	CONC(=O)c1cnn2ccc(N3CCC[C@@H]3c3cncc(F)c3)nc12 [Example 73, (R)-5-(2-(5-fluoropyridin-3-yl)pyrrolidin-1-yl)-N-methoxypyrazolo[1,5-a]pyrimidine-3-carboxamide]
15.1%	CONC(=O)c1cnn2ccc(N3CCC[C@@H]3c3cccc(F)c3)nc12 [Example 75]
4.8%	NC(=O)c1cnn2ccc(N3CCC[C@@H]3c3cc(F)cc(OCCN4CCOCC4)c3)nc12 [Example 76, (R)-5-(2-(3-fluoro-5-(2-morpholinoethoxy)phenyl)pyrrolidin-1-yl)pyrazolo[1,5-a]pyrimidine-3-carboxamide]
15.3%	COCCOc1cc(F)cc([C@H]2CCCN2c2ccn3ncc(C(=O)NC4CC4)c3n2)c1 [Example 77, (R)—N-cyclopropyl-5-(2-(3-fluoro-5-(2-methoxyethoxy)phenyl)pyrrolidin-1-yl)pyrazole [1,5-a]pyrimidine-3-carboxamide]
5.8%	COCCOc1cc(F)cc([C@H]2CCCN2c2ccn3ncc(C(N)=O)c3n2)c1 [Example 78, (R)-5-(2-(3-fluoro-5-(2-methoxyethoxy)phenyl)pyrrolidin-1-yl)pyrazolo[1,5-a]pyrimidine-3-carboxamide]
54.8%	COc1ncc(F)cc1[C@H]1CCCN1c1ccn2ncc(C(=O)NC3CC3)c2n1 [Example 79, (R)—N-cyclopropyl-5-(2-(5-fluoro-2-methoxypyridin-3-yl)pyrrolidin-1-yl)pyrazolo[1,5-a]pyrimidine-3-carboxamide]
50.7%	COc1ncc(F)cc1[C@H]1CCCN1c1ccn2ncc(C(=O)NC(C)(C)C)c2n1 [Example 80, (R)—N-tert-butyl-5-(2-(5-fluoro-2-methoxypyridin-3-yl)pyrrolidin-1-yl)pyrazolo[1,5-a]pyrimidine-3-carboxamide]
54.4%	COc1ncc(F)cc1[C@H]1CCCN1c1ccn2ncc(C(=O)NC(C)(C)CF)c2n1 [Example 81, (R)-5-(2-(5-fluoro-2-methoxypyridin-3-yl)pyrrolidin-1-yl)-N-(1-fluoro-2-methylpropan-2-yl)pyrazolo[1,5-a]pyrimidine-3-carboxamide]
10.7%	COc1ncc(F)cc1[C@H]1CCCN1c1ccn2ncc(C(N)=O)c2n1 [Example 82, (R)-5-(2-(5-fluoro-2-methoxypyridin-3-yl)pyrrolidin-1-yl)pyrazolo[1,5-a]pyrimidine-3-carboxamide]
26.3%	CONC(=O)c1cnn2ccc(N3CCC[C@@H]3c3cc(F)cnc3OC)nc12 [Example 83, (R)-5-(2-(5-fluoro-2-methoxypyridin-3-yl)pyrrolidin-1-yl)-N-methoxypyrazolo[1,5-a]pyrimidine-3-carboxamide]
2.7%	O=C(NC1(C(=O)O)CC1)c1cnn2ccc(N3CCC[C@@H]3c3cc(F)ccc3F)nc12 [Example 84, (R)-1-(5-(2-(2,5-difluorophenyl)pyrrolidin-1-yl)pyrazolo[1,5-a]pyrimidine-3-carboxamido)cyclopropanecarboxylic Acid]
6%	O=C(NC1CC1)c1cnn2ccc(N3CCC[C@@H]3c3cc(F)cc(OCCN4CCOCC4)c3)nc12 [Example 85, (R)—N-cyclopropyl-5-(2-(3-fluoro-5-(2-morpholinoethoxy)phenyl)pyrrolidin-1-yl)pyrazolo[1,5-a]pyrimidine-3-carboxamide]
17.3%	NC(=O)c1cnn2ccc(N3CCC[C@@H]3c3cc(F)ccc3OCCN3CCOCC3)nc12 [Example 86, (R)-5-(2-(5-fluoro-2-(2-morpholinoethoxy)phenyl)pyrrolidin-1-yl)pyrazolo[1,5-a]pyrimidine-3-carboxamide]
37.2%	O=C(NC1CC1)c1cnn2ccc(N3CCC[C@@H]3c3cc(F)ccc3OCCN3CCOCC3)nc12 [Example 87, (R)—N-cyclopropyl-5-(2-(5-fluoro-2-(2-morpholinoethoxy)phenyl)pyrrolidin-1-yl)pyrazolo[1,5-a]pyrimidine-3-carboxamide]
15.1%	O=C(NOC[C@@H](O)CO)c1cnn2ccc(N3CCC[C@@H]3c3cc(F)ccc3F)nc12 [Example 88, 5-((R)-2-(2,5-difluorophenyl)pyrrolidin-1-yl)-N—((S)-2,3-dihydroxypropoxy)pyrazolo[1,5-a]pyrimidine-3-carboxamide]
33.1%	COCCOc1ccc(F)cc1[C@H]1CCCN1c1ccn2ncc(C(N)=O)c2n1 [Example 89, (R)-5-(2-(5-fluoro-2-(2-methoxyethoxy)phenyl)pyrrolidin-1-yl)pyrazolo[1,5-a]pyrimidine-3-carboxamide]
67.3%	COCCOc1ccc(F)cc1[C@H]1CCCN1c1ccn2ncc(C(=O)NC3CC3)c2n1 [Example 90, (R)—N-cyclopropyl-5-(2-(5-fluoro-2-(2-methoxyethoxy)phenyl)pyrrolidin-1-yl)pyrazolo[1,5-a]pyrimidine-3-carboxamide]
0.5%	CC1(O)CN(C(=O)c2cnn3ccc(N4CCC[C@@H]4c4cncc(F)c4)nc23)C1 [Example 92, (R)-(5-(2-(5-fluoropyridin-3-yl)pyrrolidin-1-yl)pyrazolo[1,5-a]pyrimidin-3-yl)(3-hydroxy-3-methylazetidin-1-yl)methanone]
4.4%	O=C(c1cnn2ccc(N3CCC[C@@H]3c3cncc(F)c3)nc12)N1CCCC1 [Example 94, (R)-(5-(2-(5-fluoropyridin-3-yl)pyrrolidin-1-yl)pyrazolo[1,5-a]pyrimidin-3-yl)(pyrrolidin-1-yl)methanone]
19.2%	O=C(Nc1ccc(F)cn1)c1cnn2ccc(N3CCC[C@@H]3c3cncc(F)c3)nc12 [Example 95, (R)—N-(5-fluoropyridin-2-yl)-5-(2-(5-fluoropyridin-3-yl)pyrrolidin-1-yl)pyrazolo[1,5-a]pyrimidine-3-carboxamide]
6.8%	O=C(NCC(F)CCl)c1cnn2ccc(N3CCC[C@@H]3c3cncc(F)c3)nc12 (stereo partly drawn) [Example 97, N-(3-chloro-2-fluoropropyl)-5-((R)-2-(5-fluoropyridin-3-yl)pyrrolidin-1-yl)pyrazolo[1,5-a]pyrimidine-3-carboxamide]
26.2%	O=C(NC1CCC1)c1cnn2ccc(N3CCC[C@@H]3c3cncc(F)c3)nc12 [Example 101, (R)-N-cyclobutyl-5-(2-(5-fluoropyridin-3-yl)pyrrolidin-1-yl)pyrazolo[1,5-a]pyrimidine-3-carboxamide]
17.3%	CC1(NC(=O)c2cnn3ccc(N4CCC[C@@H]4c4cncc(F)c4)nc23)CCC1 [Example 102, (R)-5-(2-(5-fluoropyridin-3-yl)pyrrolidin-1-yl)-N-(1-methylcyclobutyl)pyrazolo[1,5-a]pyrimidine-3-carboxamide]
4.5%	O=C(N[C@H]1CCC[C@@H]1O)c1cnn2ccc(N3CCC[C@@H]3c3cncc(F)c3)nc12 [Example 103, 5-((R)-2-(5-fluoropyridin-3-yl)pyrrolidin-1-yl)-N-((1S,2S)-2-hydroxycyclopentyl)pyrazolo[1,5-a]pyrimidine-3-carboxamide]
6.1%	O=C(N[C@H]1CCC[C@H]1O)c1cnn2ccc(N3CCC[C@@H]3c3cncc(F)c3)nc12 [Example 104, 5-((R)-2-(5-fluoropyridin-3-yl)pyrrolidin-1-yl)-N-((1S,2R)-2-hydroxycyclopentyl)pyrazolo[1,5-a]pyrimidine-3-carboxamide]
18.7%	O=C(N[C@H]1CC[C@H](O)C1)c1cnn2ccc(N3CCC[C@@H]3c3cncc(F)c3)nc12 [Example 105, 5-((R)-2-(5-fluoropyridin-3-yl)pyrrolidin-1-yl)-N-((1S,3S)-3-hydroxycyclopentyl)pyrazolo[1,5-a]pyrimidine-3-carboxamide]
